Patent publication US20250277794A1, “SQSTM1 AND ITS USE IN CANCER THERAPY” (CENTRE NATIONAL DE LA RECHERCHE SCIENTIFIQUE, priority 2020, published 2025)

B1: IFNG: IFNγ (C-60724 Promokine), positive control (protein, UniProt P01579 24-161, looked up)
Interferon gamma: QDPYVKEAENLKKYFNAGHSDVADNGTLFLGILKNWKEESDRKIMQSQIVSFYFKLFKNFKDDQSIQKSVETIKEDMNVKFFNSNKKKRDDFEKLTNYSVTDLNVQRKAIHELIQVMAELSPAAKTGKRKRSQMLFRG

Legend:
Assay type in all cases: cell-based, human
[1] = system: HLA-B and PD-L1 expression in ShC A549 cells; assay: IFN/HLA-B/PD-L1 pathway expression (qRT-PCR, western blot, flow cytometry) in shControl A549 cells; conditions: for Induction of HLA-B and PD-L1 expression: ShC (SQSTM1 positive) A549 cells, 5-Aza 500 nM, 5 and 6 days, IFNG 50 ng/ml
[2] = system: shControl (ShC) A549 cells; assay: Cell viability / Crystal Violet Cytotoxicity Assay, dose-response IC50, shControl A549 cells
Method: (§1) The majority of experiments presented in this study was performed with the human KRAS G12S/SKT11 Q37* co-mutated NSCLC A549 cells (American Type Tissue Collection, ATCC). All cells were maintained in Dulbecco's-modified minimum essential medium and Ham's F-12 medium (DMEM/F12 Glutamax; Life Technologies) supplemented with 10% fetal bovine serum (Dutcher), 2% Sodium Pyruvate, and 1% Penicillin-Streptomycin (Life technologies). To establish SQSTM1 knockdown stable cell lines, cells were transduced with small hairpin RNAs (shRNAs) lentiviruses that target the mRNA coding sequence of SQSTM1. Two distinct SQSTM1 shRNAs (Sigma, human, NM_003900, SQSTM1 #1, TRCN0000007237, and SQSTM1 #2, TRCN0000007236) were used to minimize sequence-dependent off-target effects. As controls, autophagy was inhibited at the initiation step by ATG5 (Sigma, human, NM_004849, ATG5 #1, TRCN0000151963) or ATG7 shRNA (Sigma, human, NM_006395, TRCN0000007584). For this purpose, the targeted and control (Sigma; SHC002V) shRNA lentivirus were transduced into the cells. ShRNA-mediated protein downregulation was controlled by qRT-PCR or immunoblotting with specific primers and antibodies (see for shRNA, primer, and antibody details the supplemental Tables 1 to 3).
(§2) For all experiments, cells were seeded in 6-well plates or 60 mm culture dishes and incubated until they reached 60-70% confluency.

ShSQSTM1 A549 cells = assay: Cell viability / Crystal Violet Cytotoxicity Assay, dose-response IC50, shSQSTM1 A549 cells
Method: as §1, §2

[3] = system: HLA-B and PD-L1 expression in ShSQSTM1 A549 cells; assay: IFN/HLA-B/PD-L1 pathway expression (qRT-PCR, western blot, flow cytometry) in SQSTM1-depleted A549 cells; conditions: docetaxel 5 nM; for TBK1/STAT1 phosphorylation and expression of IFN, HLA-B and PD-L1 in SQSTM1-depleted cells: Cisplatin 10 μM, IFNG 50 ng/ml
Method: as §2
Quantitative real-time polymerase chain reaction analysis was performed on equal amounts of cDNA using the SYBR Green master mix and an Applied StepOne Plus PCR system (Life technologies). Relative gene expression changes were quantified using the 2 [−ΔΔCt] method and normalized to the housekeeping gene RPLP0 compared to the untreated cell samples.
Cell-surface expression of PD-L1 was examined using flow cytometry. […] Flow cytometry analysis was performed on a Cytoflex flow cytometer (10,000 cells, Cytoflex software). The MFI (PD-L1-isotype) is calculated as the MFI (PD-L1) is subtracted by the MFI (isotype control).

[4] = system: 53BP1-positive foci in A549 cells; assay: Global DNA damage measured by 53BP1 focus formation (immunofluorescence); conditions: Cisplatin 10 μM, FIG. 18
Method: At the indicated time, global DNA damage (A) was measured by 53BP1 focus formation (right immunofluorescence staining, 53BP1 red, Dapi, blue. Left, cell percentage with more than five spots).

[5] = Shc A549, dose-response curves (Cell Treatments)
[6] = ShSQSTM1 A549, dose-response curves (Cell Treatments)
[7] = Homo sapiens, Shc A549, dose-response curves (Cell Treatments)
[8] = Homo sapiens, ShSQSTM1 A549, dose-response curves (Cell Treatments)

Molecule	Induction of HLA-B and PD-L1 expression [1]	TBK1/STAT1 phosphorylation and expression of IFN, HLA-B and PD-L1 in SQSTM1-depleted cells [3]	IC50 [2, 7]	IC50 (ShSQSTM1 A549 cells; [8])	also measured
Nc1ncn([C@@H]2O[C@H](CO)[C@@H](O)[C@H]2O)c(=O)n1 [5-Azacytidine]	recapitulated the late expression of HLA-B and PD-L1				
N.N.[Cl][Pt][Cl] [Cisplatin]	most effective drug for inducing HLA-B and PD-L1	did not up-regulate			IC50 [2, 5]: 24000 nM; IC50 ([2]; control ShC A549 cells, Cisplatin 5 days, FIG. 14): 24000 ± 1400 nM; IC50 (ShSQSTM1 A549 cells; [6]): 47700 nM; IC50 (ShSQSTM1 A549 cells; ShSQSTM1 A549 cells, Cisplatin 5 days, FIG. 14): 51000 ± 5300 nM; Start of formation of 53BP1-positive foci [4]: 6 h; Time of peak value of 53BP1-positive foci [4]: 16 h
CC(=O)O[C@@]12CO[C@@H]1C[C@H](O)[C@@]1(C)C(=O)[C@H](O)C3=C(C)[C@@H](OC(=O)[C@H](O)[C@@H](NC(=O)OC(C)(C)C)c4ccccc4)C[C@@](O)([C@@H](OC(=O)c4ccccc4)[C@H]21)C3(C)C [Docetaxel]		significantly rescued	364 nM	21.3 nM	Growth arrest and DNMT1 downregulation ([1]; Shc A549 cells, docetaxel 5 nM, qRT-PCR): did trigger growth arrest and DNMT1 downregulation; Growth arrest and DNMT1 downregulation ([3]; qRT-PCR): did trigger growth arrest and DNMT1 downregulation
COc1cccc2c1C(=O)c1c(O)c3c(c(O)c1C2=O)C[C@@](O)(C(=O)CO)C[C@@H]3O[C@H]1C[C@H](N)[C@H](O)[C@H](C)O1 [Doxorubicin]	recapitulated the late induction of this pathway		364 nM	486 nM	
O=C(NCCCNc1nc(Nc2cccc(CN3CCOCC3)c2)ncc1C1CC1)C1CCC1 [MRT 67307]					Block of Cisplatin ability to induce IFN/HLA B/PD-L1 ([1]; co-treatment with Cisplatin 10 μM, MRT 67307 10 μM, Ruxolitinib 5 μM, FIG. 26): sufficient to block
O=C1[O][Pt]2([NH][C@@H]3CCCC[C@H]3[NH]2)[O]C1=O [Oxaliplatin]	recapitulated the late induction of this pathway				IC50 [2, 5]: 2610 nM; IC50 (ShSQSTM1 A549 cells; [6]): 4510 nM
CC(=O)O[C@H]1C(=O)[C@@]2(C)[C@H]([C@H](OC(=O)c3ccccc3)[C@]3(O)C[C@H](OC(=O)[C@H](O)[C@@H](NC(=O)c4ccccc4)c4ccccc4)C(C)=C1C3(C)C)[C@]1(OC(C)=O)CO[C@@H]1C[C@@H]2O [Paclitaxel]			1.4 nM	3.7 nM	
CO/C1=C\C(C)=C\[C@@H](C)[C@@H](O)[C@@H](C)C/C(C)=C/C=C/[C@H](OC)[C@@H]([C@@H](C)[C@@H](O)[C@H](C)[C@@]2(O)C[C@@H](O)[C@H](C)[C@@H](C(C)C)O2)OC1=O [bafA1]					HLA-B and PD-L1 expression on pharmacological autophagy inhibition ([1]; A549 cells, data not shown): enhanced expression of HLA-B and PD-L1
B1	induced STAT1 phosphorylation, HLA-B, and PD-L1 expression	induced STAT1 phosphorylation, HLA-B, and PD-L1 expression			
